Test results published in patent US12263349B2, “Method of treatment of biological surfaces” (Koite Health Oy, priority 2018, dated 2025).
Entries after “also recorded” stand apart in the source; their conditions may differ.

What was measured:
[1] = test system: Streptococcus mutans biofilm; assay: Streptococcus mutans monospecies biofilm model, PDT with indocyanine green, viability by serial dilution CFU; type: cell-based, Streptococcus mutans (ATCC 25175)
Method: In a third series of test, the adaptability of Streptococcus mutans biofilms to multi and single wavelength PDT treatments, respectively, was compared.
Two separate monospecies biofilm model experiments were performed to study the effect of reoccurring photodynamic therapy on biofilm formation. The Streptococcus mutans biofilm experiments were divided in different classes based on biofilm age and the therapy given.
The one-time PDT treatment was performed for 1 day, 2 days and 4 days old biofilms. […] The viability of the bacteria was assessed by serial dilution CFU method which was performed after the last photodynamic therapy treatment.
Streptococcus mutans (ATCC 25175) bacteria was grown over 18 h in growth chamber (36° C., 5% CO2) in BHI-broth (Bio-Rad 3564014). The resulting bacteria suspension was diluted with 0.9% NaCl suspension to optical density of 0.46.
Biofilm was grown on bottom of well plate by adding 100 μl diluted Streptococcus mutans suspension in each well with 100 μl of BHI-broth growth medium. The bacteria plate was incubated in growth chamber (36 Celsius, 5% CO2) and BHI-broth medium changed daily.
Before the light exposure, the growth medium was replaced with indocyanine green suspension which was let to incubate in dark in room temperature for 10 minutes. After the incubation the biofilm was washed twice with 0.9% NaCl solution. The treatment time was calculated from desired light amount and known intensity.
The light exposure was performed by placing the well plate under known LED light source. The given light intensity was analyzed with Thorlabs PM100D and S121C sensor head. Treatment time was changed to result in desired light amount. […]
The first experiment of continuous treatment of Streptococcus biofilm with PDT was completed by using 250 μg/ml ICG with 810 nm light. Different age biofilms of 1 day, 2 days and 4 days were grown, and the treatment was given once to each biofilm to evaluated the effect of single time treatment to differently aged biofilms. […]

Streptococcus mutans = assay: Bacteria plate study: antibacterial effect of 405 nm light compared to PDT; type: cell-based; conditions: FIG. 6
[2] = test system: monospecies biofilm of Streptococcus sobrinus; conditions: biofilm versus planktonic form; cited from earlier work
[3] = test system: Streptococcus mutans biofilm; assay: Potentiation of chlorhexidine with dual wavelength PDT; type: cell-based; conditions: high and low energy photons with photosensitizer; FIG. 3
Source text: Treatment can be combined with topic use of antibiotics and disinfectants for synergist antipathogen effect. For example, the use phototherapy with chlorhexidine to target biofilms is new to oral disinfection. The results of dual wavelength photodynamic therapy with chlorhexidine against Streptococcus mutans biofilm shown in appendix III are completely new. […] The effectivity is based on photon and anionic photosensitizer ability to penetrate deeper into biofilm and provide efficient bacteria killing inside the biofilm as well as on the surface. The chlorhexidine effect is mostly present only on the surface of the biofilm. High energy photons reduce the biofilm EPS matrix formation that further increases the chlorhexidine effectivity in subsequent treatments. In a second series of tests, potentiation of chlorhexidine with dual wavelength PDT was evaluated.

Molecule	effect of PDT treatment on biofilm (CFU), every day treated ([1]; 250 μg/ml ICG with 810 nm light (single wavelength), 4 days old biofilm treated every day)	effect of PDT treatment on biofilm (CFU), treatment given once ([1]; 250 μg/ml ICG with 810 nm light, single treatment of 1 day, 2 days and 4 days old biofilms)	bacteria killing with double wavelength PDT, every day therapy versus day 4 only ([1]; ICG, 810 nm combined with 405 nm light, 4 days old biofilm)	light dose resulting in complete inhibition of Streptococcus mutans growth (Streptococcus mutans)	times greater concentration needed to kill biofilm than planktonic counterpart [2]	antimicrobial effect of chlorhexidine combined with multi wavelength PDT versus reference and one wavelength [3]
CC1(C)C(/C=C/C=C/C=C/C=C2\N(CCCCS(=O)(=O)O)c3ccc4ccccc4c3C2(C)C)=[N+](CCCCS(=O)(=O)[O-])c2ccc3ccccc3c21 [ICG, Indocyanine green]	poor treatment effect; also recorded: failed to achieve strong bacteria killing	strong effect of PDT treatment	No significant difference of bacteria killing; also recorded: no bacteria biofilm adaptation to the treatment was observed	4 J/cm^2	–	–
[H]/N=C(\N/C(=N/[H])NCCCCCCNC(=N)NC(=N)Nc1ccc(Cl)cc1)Nc1ccc(Cl)cc1 [chlorhexidine]	–	–	–	–	100	increased substantially the antibacterial effect; also recorded: much stronger effect
amine fluoride	–	–	–	–	100	–
